Measured values as given in PubChem BioAssay (NCI).
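How tested: cells in 96-well plates exposed to compound for 48 hours at five concentrations. GI50: concentration for 50% inhibition of growth. TGI marks complete inhibition of growth.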

Key:
Assay in all cases: NCI anticancer screen, dose series, 48 h
786-0 renal = system: 786-0 renal
A498 renal = system: A498 renal
A549 NSCLC = system: A549 NSCLC
ACHN renal = system: ACHN renal
BT-549 breast = system: BT-549 breast
CAKI-1 renal = system: CAKI-1 renal
CCRF-CEM leukemia = system: CCRF-CEM leukemia
COLO 205 colon = system: COLO 205 colon
DU-145 prostate = system: DU-145 prostate
EKVX NSCLC = system: EKVX NSCLC
HCC-2998 colon = system: HCC-2998 colon
HCT-116 colon = system: HCT-116 colon
HCT-15 colon = system: HCT-15 colon
HL-60(TB) leukemia = system: HL-60(TB) leukemia
HOP-62 NSCLC = system: HOP-62 NSCLC
HOP-92 NSCLC = system: HOP-92 NSCLC
HS 578T breast = system: HS 578T breast
HT29 colon = system: HT29 colon
IGROV1 ovarian = system: IGROV1 ovarian
K-562 leukemia = system: K-562 leukemia
KM12 colon = system: KM12 colon
LOX IMVI melanoma = system: LOX IMVI melanoma
M14 melanoma = system: M14 melanoma
MALME-3M melanoma = system: MALME-3M melanoma
MCF7 breast = system: MCF7 breast
MDA-MB-231 breast = system: MDA-MB-231 breast
MDA-MB-435 = system: MDA-MB-435
MOLT-4 leukemia = system: MOLT-4 leukemia
NCI-H226 lung = system: NCI-H226 lung
NCI-H23 lung = system: NCI-H23 lung
NCI-H460 lung = system: NCI-H460 lung
NCI-H522 lung = system: NCI-H522 lung
NCI/ADR-RES ovarian = system: NCI/ADR-RES ovarian
OVCAR-3 ovarian = system: OVCAR-3 ovarian
OVCAR-4 ovarian = system: OVCAR-4 ovarian
OVCAR-5 ovarian = system: OVCAR-5 ovarian
OVCAR-8 ovarian = system: OVCAR-8 ovarian
PC-3 prostate = system: PC-3 prostate
RPMI-8226 leukemia = system: RPMI-8226 leukemia
RXF 393 renal = system: RXF 393 renal
SF-268 CNS = system: SF-268 CNS
SF-295 CNS = system: SF-295 CNS
SF-539 CNS = system: SF-539 CNS
SK-MEL-2 melanoma = system: SK-MEL-2 melanoma
SK-MEL-28 melanoma = system: SK-MEL-28 melanoma
SK-MEL-5 melanoma = system: SK-MEL-5 melanoma
SK-OV-3 ovarian = system: SK-OV-3 ovarian
SN12C renal = system: SN12C renal
SNB-19 CNS = system: SNB-19 CNS
SNB-75 CNS = system: SNB-75 CNS
SR leukemia = system: SR leukemia
SW-620 colon = system: SW-620 colon
T-47D breast = system: T-47D breast
TK-10 renal = system: TK-10 renal
U251 CNS = system: U251 CNS
UACC-257 melanoma = system: UACC-257 melanoma
UACC-62 melanoma = system: UACC-62 melanoma
UO-31 renal = system: UO-31 renal

CC(C)[O-].CC(C)[O-].CN(CCN(C)Cc1cc(F)cc(F)c1[O-])Cc1cc(F)cc(F)c1[O-].[Ti+4]
GI50 (786-0 renal): 1480 nM
TGI (786-0 renal): 5700 nM
GI50 (A498 renal): 1130 nM
TGI (A498 renal): 2760 nM
GI50 (A549 NSCLC): 892 nM
TGI (A549 NSCLC): 7950 nM
GI50 (ACHN renal): 1000 nM
TGI (ACHN renal): 8340 nM
GI50 (BT-549 breast): 1950 nM
TGI (BT-549 breast): 5920 nM
GI50 (CAKI-1 renal): 874 nM
TGI (CAKI-1 renal): 6450 nM
GI50 (CCRF-CEM leukemia): 512 nM
TGI (CCRF-CEM leukemia): > 35100 nM
GI50 (COLO 205 colon): 1620 nM
TGI (COLO 205 colon): 4860 nM
GI50 (DU-145 prostate): 1470 nM
TGI (DU-145 prostate): 7060 nM
GI50 (EKVX NSCLC): 1310 nM
TGI (EKVX NSCLC): 10000 nM
GI50 (HCC-2998 colon): 2220 nM
TGI (HCC-2998 colon): 7520 nM
GI50 (HCT-116 colon): 792 nM
TGI (HCT-116 colon): 4860 nM
GI50 (HCT-15 colon): 526 nM
TGI (HCT-15 colon): 15100 nM
GI50 (HL-60(TB) leukemia): 1510 nM
TGI (HL-60(TB) leukemia): > 40800 nM
GI50 (HOP-62 NSCLC): 634 nM
TGI (HOP-62 NSCLC): 3680 nM
GI50 (HOP-92 NSCLC): 316 nM
TGI (HOP-92 NSCLC): 1180 nM
GI50 (HS 578T breast): 1620 nM
TGI (HS 578T breast): 6220 nM
GI50 (HT29 colon): 1720 nM
TGI (HT29 colon): 3810 nM
GI50 (IGROV1 ovarian): 688 nM
TGI (IGROV1 ovarian): 2470 nM
GI50 (K-562 leukemia): 835 nM
TGI (K-562 leukemia): 5490 nM
GI50 (KM12 colon): 907 nM
TGI (KM12 colon): 2950 nM
GI50 (LOX IMVI melanoma): 784 nM
TGI (LOX IMVI melanoma): 3880 nM
GI50 (M14 melanoma): 638 nM
TGI (M14 melanoma): 2300 nM
GI50 (MALME-3M melanoma): 379 nM
TGI (MALME-3M melanoma): 1430 nM
GI50 (MCF7 breast): 687 nM
TGI (MCF7 breast): 2780 nM
GI50 (MDA-MB-231 breast): 1670 nM
TGI (MDA-MB-231 breast): 10500 nM
GI50 (MDA-MB-435): 585 nM
TGI (MDA-MB-435): 2100 nM
GI50 (MOLT-4 leukemia): 900 nM
TGI (MOLT-4 leukemia): 8470 nM
GI50 (NCI-H226 lung): 2140 nM
TGI (NCI-H226 lung): 10500 nM
GI50 (NCI-H23 lung): 706 nM
TGI (NCI-H23 lung): 2720 nM
GI50 (NCI-H460 lung): 575 nM
TGI (NCI-H460 lung): 2830 nM
GI50 (NCI-H522 lung): 777 nM
TGI (NCI-H522 lung): 2330 nM
GI50 (NCI/ADR-RES ovarian): 863 nM
TGI (NCI/ADR-RES ovarian): 7050 nM
GI50 (OVCAR-3 ovarian): 923 nM
TGI (OVCAR-3 ovarian): 6780 nM
GI50 (OVCAR-4 ovarian): 717 nM
TGI (OVCAR-4 ovarian): 7180 nM
GI50 (OVCAR-5 ovarian): 1510 nM
TGI (OVCAR-5 ovarian): 8780 nM
GI50 (OVCAR-8 ovarian): 1090 nM
TGI (OVCAR-8 ovarian): 6550 nM
GI50 (PC-3 prostate): 1230 nM
TGI (PC-3 prostate): 5430 nM
GI50 (RPMI-8226 leukemia): 882 nM
TGI (RPMI-8226 leukemia): 4440 nM
GI50 (RXF 393 renal): 357 nM
TGI (RXF 393 renal): 1310 nM
GI50 (SF-268 CNS): 1040 nM
TGI (SF-268 CNS): 3220 nM
GI50 (SF-295 CNS): 710 nM
TGI (SF-295 CNS): 3760 nM
GI50 (SF-539 CNS): 1010 nM
TGI (SF-539 CNS): 4800 nM
GI50 (SK-MEL-2 melanoma): 1520 nM
TGI (SK-MEL-2 melanoma): 4950 nM
GI50 (SK-MEL-28 melanoma): 692 nM
TGI (SK-MEL-28 melanoma): 2170 nM
GI50 (SK-MEL-5 melanoma): 467 nM
TGI (SK-MEL-5 melanoma): 1670 nM
GI50 (SK-OV-3 ovarian): 634 nM
TGI (SK-OV-3 ovarian): 9090 nM
GI50 (SN12C renal): 1530 nM
TGI (SN12C renal): 7310 nM
GI50 (SNB-19 CNS): 909 nM
TGI (SNB-19 CNS): 8150 nM
GI50 (SNB-75 CNS): 517 nM
TGI (SNB-75 CNS): 2520 nM
GI50 (SR leukemia): 512 nM
GI50 (SW-620 colon): 828 nM
TGI (SW-620 colon): 3300 nM
GI50 (T-47D breast): 416 nM
TGI (T-47D breast): 8310 nM
GI50 (TK-10 renal): 1420 nM
TGI (TK-10 renal): 7260 nM
GI50 (U251 CNS): 438 nM
TGI (U251 CNS): 1830 nM
GI50 (UACC-257 melanoma): 1150 nM
TGI (UACC-257 melanoma): 3900 nM
GI50 (UACC-62 melanoma): 1260 nM
TGI (UACC-62 melanoma): 3090 nM
GI50 (UO-31 renal): 977 nM
TGI (UO-31 renal): 5460 nM
